Measurements reported in patent publication US10723695B2, “Microbiocidal phenylamidine derivatives” (SYNGENTA PARTICIPATIONS AG, priority 2015, dated 2020).

Tests used:
Format in all cases: in vivo
[1] = tested on: Puccinia recondita f. sp. tritici; assay: Puccinia recondita f. sp. tritici / wheat / leaf disc preventative (brown rust); settings: foliar, wheat leaf segments cv. Kanzler, compared to untreated control leaf disks, read-out: disease control
Procedure: Puccinia recondita f. sp. tritici/Wheat/Leaf Disc Preventative (Brown Rust) Wheat leaf segments cv. Kanzler were placed on agar in multiwell plates (24-well format) and sprayed with the formulated test compound diluted in water. The leaf disks were inoculated with a spore suspension of the fungus 1 day after application. The inoculated leaf segments were incubated at 19° C. and 75% rh under a light regime of 12 h light/12 h darkness in a climate cabinet and the activity of a compound was assessed as percent disease control compared to untreated when an appropriate level of disease damage appears in untreated check leaf segments (7-9 days after application).

[2] = tested on: Phakopsora pachyrhizi; assay: Phakopsora pachyrhizi / soybean / leaf disk preventative (soybean rust); settings: foliar, soybean leaf disks, compared to untreated control leaf disks, read-out: disease control
Procedure: Phakopsora pachyrhizi/Soybean/Leaf Disk Preventative (Soybean Rust) Four-week old soybean plants are sprayed in a spray chamber with the formulated test compound diluted in water. Leaf disks are cut from treated plants and placed on agar into 24-well plates one day after application. Leaf disks are inoculated by spraying them with a spore suspension on their lower leaf surface. After an incubation period in a climate cabinet of 24-36 hours in darkness at 20° C. and 75% rh, the leaf disks are then kept at 20° C. with 12 h light/day and 75% rh. The percentage leaf disk area covered by disease is assessed when an appropriate level of disease appears on untreated check plants (12-14 days after application).

[3] = tested on: Puccinia recondita f. sp. tritici; assay: Puccinia recondita f. sp. tritici / wheat / leaf disc curative (brown rust); settings: foliar, 24 h, wheat leaf segments cv. Kanzler, curative (applied 1 day after inoculation), compared to untreated control leaf disks, read-out: disease control
Procedure: Puccinia recondita f. sp. tritici/Wheat/Leaf Disc Curative (Brown Rust) Wheat leaf segments cv. Kanzler are placed on agar in multiwell plates (24-well format). The leaf segments are inoculated with a spore suspension of the fungus. Plates were stored in darkness at 19° C. and 75% rh. The formulated test compound diluted in water was applied 1 day after inoculation.

[4] = tested on: Blumeria graminis f. sp. tritici (Erysiphe graminis f. sp. tritici); assay: Blumeria graminis f. sp. tritici / wheat / leaf disc preventative (powdery mildew on wheat); settings: foliar, wheat leaf segments cv. Kanzler, compared to untreated control leaf disks, read-out: disease control
Source text: Blumeria graminis f. sp. tritici (Erysiphe graminis f. sp. tritici)/Wheat/Leaf Disc Preventative (Powdery Mildew on Wheat) Wheat leaf segments cv. Kanzler were placed on agar in a multiwell plate (24-well format) and sprayed with the formulated test compound diluted in water. The leaf disks were inoculated by shaking powdery mildew infected plants above the test plates 1 day after application.

Measured: pest or weed control at 200 ppm

CCN(C)/C=N/c1cc(OC)c(C(O)(c2ccccc2)C(F)F)cc1C (stereo not drawn) [Compound E1.005]
≥ 80%: all assays above

CCN(C)/C=N/c1cc(OC)c(C(C)(O)c2ccccc2)cc1C (stereo not drawn) [Compound E1.007, N-ethyl-N′-[4-(1-hydroxy-1-phenyl-ethyl)-5-methoxy-2-methyl-phenyl]-N-methyl-formamidine]
≥ 80%: all assays above

COc1cc(/N=C/N(C)C2CC2)c(C)cc1C(O)(c1ccccc1)C(F)(F)F (stereo not drawn) [Compound E1.008]
≥ 80%: [1] | [3]

CCN(C)/C=N/c1cc(OC)c(C(O)(c2cc(Cl)cc(Cl)c2)C(F)(F)F)cc1C (stereo not drawn) [Compound E1.013]
≥ 80%: [1] | [3] | [4]

CCN(C)/C=N/c1cc(OC)c([C@](O)(c2ccccc2)C(F)(F)F)cc1C [Compound E1.014]
≥ 80%: all assays above

CCN(C)/C=N/c1cc(OC)c([C@@](O)(c2ccccc2)C(F)(F)F)cc1C [Compound E1.015]
≥ 80%: all assays above

CCN(C)/C=N/c1cc(OC)c(C(O)(c2ccccc2OC)C(F)(F)F)cc1C (stereo not drawn) [Compound E1.030]
≥ 80%: all assays above

CCN(C)/C=N/c1cc(OC)c(C(O)(c2ccc(SC(F)F)cc2)C(F)(F)F)cc1C (stereo not drawn) [Compound E1.038]
≥ 80%: [3] | [4]

CCN(C)/C=N/c1cc(OC)c(C(O)(c2cccc(SC)c2)C(F)(F)F)cc1C (stereo not drawn) [Compound E1.042]
≥ 80%: [3] | [4]

CCCCC(O)(c1cc(C)c(/N=C/N(C)C2CC2)cc1OC)C(F)(F)F (stereo not drawn) [Compound E1.049]
≥ 80%: all assays above

CCN(C)/C=N/c1cc(OC)c(C(O)(C2CCCC2)C(F)(F)F)cc1C (stereo not drawn) [Compound E1.050]
≥ 80%: all assays above

CCN(C)/C=N/c1cc(OC)c(C(O)(CC(C)C)C(F)(F)F)cc1C (stereo not drawn) [Compound E1.051]
≥ 80%: all assays above

CCCCC(O)(c1cc(C)c(/N=C/N(C)C(C)C)cc1OC)C(F)(F)F (stereo not drawn) [Compound E1.053]
≥ 80%: all assays above

CCN(C)/C=N/c1cc(OC)c(C(O)(C(C)C)C(F)(F)F)cc1C (stereo not drawn) [Compound E1.054, N-ethyl-N′-[4-[1-hydroxy-2-methyl-1-(trifluoromethyl)propyl]-5-methoxy-2-methyl-phenyl]-N-methyl-formamidine]
≥ 80%: all assays above

COc1cc(/N=C/N(C)C(C)C)c(C)cc1C(O)(C1CCCC1)C(F)(F)F (stereo not drawn) [Compound E1.060]
≥ 80%: [1] | [3] | [4]

CCN(C)/C=N/c1cc(OC)c(C(O)(C2CCC(C)(C)CC2)C(F)(F)F)cc1C (stereo not drawn) [Compound E1.061]
≥ 80%: all assays above

CCN(C)/C=N/c1cc(OC)c(C(O)(C2CCC(C)CC2)C(F)(F)F)cc1C (stereo not drawn) [Compound E1.062]
≥ 80%: all assays above

CCCCCC(O)(c1cc(C)c(/N=C/N(C)CC)cc1OC)C(F)(F)F (stereo not drawn) [Compound E1.065]
≥ 80%: all assays above

CCN(C)/C=N/c1cc(OC)c(C(O)(CC(C)(C)C)C(F)(F)F)cc1C (stereo not drawn) [Compound E1.066]
≥ 80%: all assays above

CCN(C)/C=N/c1cc(OC)c(C(O)(CCC(C)C)C(F)(F)F)cc1C (stereo not drawn) [Compound E1.068]
≥ 80%: all assays above

CCN(C)/C=N/c1cc(OC)c(C(O)(C2=CCCC2)C(F)(F)F)cc1C (stereo not drawn) [Compound E1.079]
≥ 80%: [1] | [3] | [4]

CCN(C)/C=N/c1cc(OC)c(C(O)(C2=CCCCC2)C(F)(F)F)cc1C (stereo not drawn) [Compound E1.080]
≥ 80%: [1] | [3] | [4]

CCN(C)/C=N/c1cc(OC)c(C(O)(Cc2ccc(F)cc2)C(F)(F)F)cc1C (stereo not drawn) [Compound E1.091]
≥ 80%: [2] | [3] | [4]

CCN(C)/C=N/c1cc(OC)c(C(O)(Cn2cc3ccccc3n2)C(F)(F)F)cc1C (stereo not drawn) [Compound E1.092]
≥ 80%: [1] | [3] | [4]

CCN(C)/C=N/c1cc(OC)c(C(O)(Cn2nc(C)c(Cl)c2C)C(F)(F)F)cc1C (stereo not drawn) [Compound E1.096]
≥ 80%: [2]

CCN(C)/C=N/c1cc(OC)c(C(O)(Cn2cncn2)C(F)(F)F)cc1C (stereo not drawn) [Compound E1.098]
≥ 80%: [1] | [3] | [4]

CCN(C)/C=N/c1cc(OC)c(C(O)(Cc2cccc(F)n2)C(F)(F)F)cc1C (stereo not drawn) [Compound E1.102]
≥ 80%: [2] | [3] | [4]

CCN(C)/C=N/c1cc(OC)c(C(O)(c2cnn(-c3ccccc3)c2)C(F)(F)F)cc1C (stereo not drawn) [Compound E1.109]
≥ 80%: [1] | [3] | [4]

CCN(C)/C=N/c1cc(OC)c(C(O)(c2cnn(C(C)C)c2)C(F)(F)F)cc1C (stereo not drawn) [Compound E1.110]
≥ 80%: [1] | [3]

CCN(C)/C=N/c1cc(OC)c(C(O)(c2cnn(CC)c2)C(F)(F)F)cc1C (stereo not drawn) [Compound E1.111]
≥ 80%: [1] | [2] | [3]

CCCCC(O)(c1cc(C)c(/N=C/N(C)CC)cc1SC)C(F)(F)F (stereo not drawn) [Compound E1.114]
≥ 80%: [2] | [3] | [4]
